Source: patent publication US20250108017A1 (Aquestive Therapeutics, Inc., priority 2023, published 2025)
Like-named read-outs stand apart in the source and are kept apart here. Each block holds one molecule with its values, some of them ahead of it.

What was measured:
[1] = for average flux: 16 mg/mL
Experimental: A franz diffusion cell is obtained and prepared.
If testing films, one can perform the following next steps: (1) weigh films, punch to match diffusion area (or smaller), reweigh, record pre- and post-punching weight; (2) wet a donor area with approximately 100 μL of phosphate buffer; (3) place film on a donor surface, top with 400 μL of phosphate buffer, and start timers.
The tissue is dermatomed to precise thickness. • 4. […] The media is selected to ensure sink conditions. • 5.
The study compared concentrations of 4 mg/mL, 8 mg/mL, 16 mg/mL and 100 mg/mL. […]

[2] = in vivo
Experimental: The study compared various dose routes: sublingual (SL), per oral tablet (PO), subcutaneous (SC) and intravenous (IV). […] An Oral Irritation assessment was performed (SL film group): Predose (0) and 24 hr postdose by Draize scoring.

[3] = PBS (pH 7.4), 37°±1° C., n=6; cited from earlier work

permeation as a function of solution pH [1]: slightly more favorable
average flux ([1]; 30 min): 0 μg/cm^2*min
average flux ([1]; 45 min): 0.2604 μg/cm^2*min
average flux ([1]; 60 min): 0.3125 μg/cm^2*min
average flux ([1]; 120 min): 0.6727 μg/cm^2*min
average flux ([1]; 180 min): 1.076 μg/cm^2*min
average flux ([1]; 240 min): 1.029 μg/cm^2*min
average flux ([1]; 300 min): 1.25 μg/cm^2*min
average flux ([1]; 360 min): 1.385 μg/cm^2*min
Compound: CNC[C@H](O)c1ccc(O)c(O)c1 [Epinephrine Bitartrate]

% Bioavailability, DIPI AUC0-t [2]: 128.5%
% Bioavailability, EPI AUC0-t [2]: 131.0%
Compound: CNC[C@H](O)c1ccc(OC(=O)C(C)(C)C)c(OC(=O)C(C)(C)C)c1 (racemic) [Dipivefrin, dipivefrin]

Compound: CC(C)NCC(O)COc1cccc2ccccc12 (stereo not drawn) [PP]
concentration of saturated solution (C0) [3]: 588005 ± 5852 µg/mL
